Laboratory results from publication PMC12796071, “Evaluation of [^18F]MNI-1054, a novel PET ligand for lysine-specific histone demethylase 1A (LSD1), in non-human primates” (EJNMMI Research, 2025).
“Also recorded” adds a separate entry of the source.

Legend:
[1] = Arterial plasma radiometabolite analysis (parent fraction) during PET; assay type: in vivo, rhesus monkeys (macaca mulatta); conditions: for parent fraction in arterial plasma: across baseline and blocking studies
Method: (§1) All brain scans were collected over 3 h on a microPET Focus 220 PET scanner (Siemens), with injected doses in the range 167.61–185 MBq. A transmission scan with an external Germanium-68 source was performed prior to the emission scans to estimate attenuation correction coefficients. Discrete arterial blood samples (n = 18–21) were taken throughout the scans to measure the parent fraction, plasma free fraction as well as total plasma and whole-blood activity for tracer kinetic modeling. Detailed procedures are provided in the Supplement.
To generate arterial input functions, [^18F]MNI-1054 parent fraction measurements in plasma were first fitted to a sum of decaying exponentials using the Levenberg-Marquardt algorithm. The total arterial plasma activity concentration measurements were then multiplied by the resulting continuous parent fractions to yield the final input functions for kinetic modeling.
Arterial blood samples (1 mL or 3.5 mL) were drawn at 0.75, 1.5, 2.25, 3, 3.75, 4, 5, 6, 8, 10, 15, 20, 25, 30, 45, 60, 90, 120, 150, and 180 min post-injection to measure parent fraction, total plasma and whole blood activity. The larger samples were drawn for analysis of parent fraction. Aliquots of 200 µL of whole blood were counted in a gamma counter (Wallac 2480 Wizard^2® Automatic Gamma Counter, Perkin-Elmer, Waltham, Massachusetts) for 1 min (400-1400 keV window). All blood samples were centrifuged for 10 min at 3,000 g and the plasma separated. Aliquots of 200 µL of plasma were counted in the gamma counter for 1 min (400-1400 keV window).
The fraction of unchanged radiotracer in plasma was determined by HPLC at selected time points. […] Sample vials and pellets were counted in the gamma counter for 1 min to calculate the extraction percentage. Gamma chromatograms were analyzed by integration of all radioactive peaks. The percentage of parent compound was calculated by dividing the area under the peak representing parent compound by the sum of the area of all radioactive peaks.

LSD1 [2] = molecular target: T1, LSD1 (Macaca mulatta, UniProt I2CUD2); experiment: PET imaging of the testes (baseline and TAK-418 blocking); conditions: baseline scan; M3
Method: TAK-418 (3 mg/kg) was administered as an intravenous bolus over 5-min, starting 120 min prior to [^18F]MNI-1054 administration.

LSD1 [3] = molecular target: T1, LSD1; experiment: Brain PET imaging and kinetic analysis of [18F]MNI-1054 (irreversible 2TCM, Patlak); assay type: in vivo; set-up: from tissue; host or cells: brain of living rhesus monkeys (M1, M2), in vivo PET; conditions: for Average Ki bias (SD) versus full 180-min scan: baseline studies; for Ki Baseline: cerebellum
Method: as §1
M1 and M2 each completed a scan at baseline to assess brain penetration and kinetics and to serve as reference for the blocking and displacement studies. A self-block study with cold 3 mg/kg MNI-1054, starting 5 min prior to [^18F]MNI-1054 administration, was conducted in M1 to assess regional differences in non-specific binding.
Blocking studies with the LSD1 inhibitor TAK-418 ([…]) were performed to measure the dose-occupancy relationship for this compound. For blocking studies, TAK-418 was administered intravenously 2 h prior to [^18F]MNI-1054. Prior to conducting these blocking studies, a displacement study with TAK-418 (3 mg/kg) was performed to confirm irreversible tracer binding, in which TAK-418 was administered 1.5 h post [^18F]MNI-1054 administration. For all studies involving TAK-418, the test article was administered intravenously over 5 min. Due to the irreversible binding of these compounds to LSD1, the time taken for the enzyme to re-populate was investigated by imaging one animal (M2) with [^18F]MNI-1054 at 24 and 48 h post TAK-418 treatment (0.3 mg/kg). Each animal also underwent a high-resolution T1-weighted structural brain MRI scan with a 3-D MPRAGE sequence on a separate day for anatomical reference.
Emission data were reconstructed with filtered back projection into a series of 45 temporal frames (6 × 30, 3 × 60, 2 × 120, 34 × 300 s). For each frame, reconstructed images had dimensions of 256 × 256 × 95, voxel size of 0.949 × 0.949 × 0.796 mm and units of kBq/mL. All standard corrections were applied including normalization, random, scatter, dead-time, and attenuation. Dynamic brain PET images were analyzed using an in-house processing pipeline incorporating functionalities from FSL [18] and AFNI [19] as well as custom developed Matlab scripts (Mathworks Inc., Natick, MA, USA). Key steps of the workflow included rigidly aligning the PET images to the same animal’s brain MRI scan and spatially normalizing the MRI volume to the INIA19 [20] and NMT2.0 [21, 22] rhesus MR templates. Volumes of interest (VOIs) masks defined in rhesus MR template spaces were then inverse warped and applied to the PET images in their native orientation to compute time-activity curves (TACs) for the following regions: occipital lobe, temporal lobe, frontal lobe, parietal lobe, olfactory cortex, amygdala, cingulate, hippocampus, thalamus, hypothalamus, cerebellar grey matter, pons, striatum, nucleus accumbens and cerebral white matter. Lobar VOI masks were restricted to grey matter only. All VOI masks were derived from the INIA19 atlas, with the exception of the pons mask which was obtained from the NMT2.0 atlas (Fig. S.2.). The average activity concentration (kBq/mL) within each VOI was determined and TACs representing the regional brain activity concentration over time were generated. Brain TACs and images were presented in SUV units [g/mL] by normalizing activity concentration data [kBq/mL] by the animal’s weight [kg] and injected activity [MBq].
Regional TACs were modeled with an irreversible 2-tissue compartmental model (‘2TCM’) (k4 = 0) with the arterial input function to determine the tracer binding parameters Ki [mL/cm^3/min] (where Ki= K1. k3/(k2 + k3)) and λ.k3 (where λ = K1/k2), a parameter independent of blood flow and proportional to LSD1 binding site density via k3. […]

[4] = irreversible 2TCM, across all scans and regions

Cc1cc([18F])ncc1C(=O)Nc1ccc([C@@H]2C[C@H]2NCC2CC2)cc1 [[^18F]MNI-1054]
parent fraction in arterial plasma ([1]; 30 min post-injection): ~ 42%
parent fraction in arterial plasma ([1]; 180 min post-injection): ~ 14%
parent fraction and parent-in-plasma activity concentration levels, higher in self-block study ([1]; self-block study (3 mg/kg cold MNI-1054) versus other studies): about 20%
testes uptake (SUV) (LSD1 [2]): ~ 2
displacement of tracer (change in TACs) (LSD1 [3]; 3.0 mg/kg TAK-418 given 90 min post tracer injection, M1): no observable change in the TACs; also recorded: did not displace
Average Ki bias (SD) versus full 180-min scan (LSD1 [3]; 120-min scan duration): 8.3 +/- 6.1%
Average Ki bias (SD) versus full 180-min scan (LSD1 [3]; 150-min scan duration): 3.2 +/- 2.8%
difference Ki,Patlak versus Ki,2TCMirrev, mean +/- SD (LSD1 [3]; Patlak t* = 30 min, all studies and regions): −0.00494 +/- 0.00348 mL/cm^3/min
Regional Ki in displacement study compared with baseline (LSD1 [3]; TAK-418 3 mg/kg 1.5 h post tracer, same animal): did not substantially vary
Ki Baseline (LSD1 [3]; animal M1): 0.058 mL/cm^3/min
Ki Baseline (LSD1 [3]; animal M2): 0.047 mL/cm^3/min
k2/k3, max (LSD1 [3]; [4]): 194.4
k2/k3, mean (SD) (LSD1 [3]; [4]): 24.7 (28.6)
k2/k3, min (LSD1 [3]; [4]): 6.1
